Assays:
[1] = Benzalkonium chloride release from wetted paper, lab blender extraction method; assay type: physicochemical; settings: hand towel made of recycled pulp; cationizing agent about 1.2 wt % (12 kg/T); benzalkonium chloride about 1 wt %
Source text: As mentioned above, the cationizing agent at least partially neutralizes the paper anionic charges. Thereby, a portion of the antimicrobial agent, which can also be cationic, is not retained on the tissue paper when the latter is wetted and is thereby released. In an embodiment, the tissue paper has a release rate between approximately 0.01 wt % and 0.6 wt % when wetted. In an alternative embodiment, the tissue paper has a release rate between approximately 0.05 wt % and 0.2 wt % when wetted. For example, a tissue paper containing about 0.3 wt % of antimicrobial agent can release about 0.1 wt % of antimicrobial agent when wetted. The antimicrobial agent released from the tissue paper is measured relatively to the original, substantially dry tissue paper weight including the cationizing and antimicrobial agents. The antimicrobial agent released from the tissue paper is measured in a solution, such as water, following extraction. For the release rates mentioned in the application, the extraction is carried out by the lab blender method described below. The antimicrobial agent in the solution is measured by a method such as and without being limitative biphasic titration or high performance liquid chromatography (HPLC).
The amount of antimicrobial agent released will be highly dependent on the method used to retrieve it from the paper. […]

[2] = Charge density of cationizing agents, antimicrobial agent and fibres; assay type: physicochemical

Molecule	Benzalkonium chloride released [1]	Charge density ([2]; cationic agent of Table 3) [eq/kg]	Charge density ([2]; Table 4, recycled deinked pulp (DIP) hand towel)	Charge density ([2]; Table 5, virgin bleached Kraft hand towel)
CCCCCCCCCCCCCCCC[N+](C)(C)C.[Cl-] [Cetyltrimethylammonium chloride, cetyltrimethylammonium chloride]	0.23 % (w/w)	3.76	–	–
benzalkonium chloride [Antimicrobial agent]	–	–	+2.9 equiv/kg	+2.9 equiv/kg

Source: patent publication US8802132B2, “Anti-microbial tissue paper and process to manufacture same” (Cascades Canada ULC, priority 2010, dated 2014)
